By IC50 is commonly meant the midpoint of a concentration-inhibition curve. Usually inhibition stands for the relative decrease from the control value, in per cent. Read a high inhibition as a strong effect.

The structures appear in SMILES notation.

From patent US10940139B2, “Compounds that interact with the Ras superfamily for the treatment of cancers, inflammatory diseases, rasopathies, and fibrotic disease” (Shy Therapeutics LLC, priority 2017, dated 2021) come the findings set out here.

One assay concerns MIA-PACA2 pancreatic cancer cell lines. The assay can be described thus: Cell proliferation assay (CellTiter 96 AQueous One). It is filed as cell-based. Particulars: Homo sapiens, MIA PaCa-2; MIA-PACA2, same assay as the % inhibition (standard conditions).
In turn, `COc1cccc(N2CCN(C(=O)c3csc4c(O)nc(-c5ccccn5)nc34)CC2)c1` [drawing 1632] gave an IC50 of 100 to 500 nM.

The same assay, now with this note: Homo sapiens, MIA PaCa-2; at 30 μM, MIA-PACA2.
For the molecule `COc1ccnc(-c2nc(O)c3c(C#N)csc3n2)c1` [drawing 1675], the inhibition at 30 µM lay within 76 to 100%.
The same measure, in the same setting: the figure for `Oc1nc(-c2ccccn2)nc2c(-c3ccc(F)cc3F)csc12` [drawing 1747] is 76 to 100%; for `NC(=O)C1CCCN(c2nc(-c3ccccn3)nc3scc(-c4ccccc4)c23)C1` (centres unmarked) [drawing 1624] it is 76 to 100%.
Same read-out and setting: the figure for `CC(C)COC(C)C(=O)Nc1nnc(-c2ccccn2)[nH]1` (centres unmarked) [drawing 1418] is 76 to 100%.
On the same count and under the same terms, the value for `O=C(COc1ccccc1)Nc1nnc(-c2ccccn2)[nH]1` [drawing 1456] was 25 to 50%; that for `O=S(=O)(CCc1ccccc1)N1CCCc2c(O)nc(-c3ccccn3)nc21` [drawing 1552] was 1 to 25%.
As for `Cc1oc(-c2ccccc2)nc1C(=O)Nc1nnc(-c2ccccn2)[nH]1` [drawing 1393], the inhibition at 30 µM lay in the range of 76 to 100%.
The same measure, in the same setting: the figure for `O=C(NCCc1nnn[nH]1)c1csc2nc(-c3ccccn3)nc(N3CCOCC3)c12` [drawing 1679] is 51 to 75%.
On the same count and under the same terms, the value for `N#Cc1cccc(CCNC(=O)c2csc3nc(-c4ccccn4)nc(N4CCOCC4)c23)c1` [drawing 1680] was 76 to 100%.
On the same count and under the same terms, the value for `O=C(CCc1cncnc1)Nc1nc(-c2ccccn2)nc2sccc12` [drawing 1767] was 76 to 100%.
As for `COc1cccc(CC2CN(C(=O)c3csc4c(O)nc(-c5ccccn5)nc34)CCN2)c1` (centres unmarked) [drawing 1706], the inhibition at 30 µM fell in the range of 1 to 25%.
The same measure, in the same setting: the value for `O=C(c1csc2c(O)nc(-c3ccccn3)nc12)N1CCOC(c2cccc(F)c2)C1` (centres unmarked) [drawing 1635] was 76 to 100%.
Still for that read-out and setting: the value for `COc1ccnc(-c2nc(O)c3c(C(F)(F)F)csc3n2)c1` [drawing 1709] was 76 to 100%; that for `COc1ccccc1-c1csc2c(O)nc(-c3ccccn3)nc12` [drawing 1746] was 76 to 100%.
For `COc1cccc(N2CCN(C(=O)c3csc4c(O)nc(-c5ccccn5)nc34)CC2)c1` [drawing 1632], the inhibition at 30 µM was 76 to 100%.
Same read-out and setting: the figure for `O=C(Nc1nnc(-c2ccccn2)[nH]1)C1CCCC(C(F)(F)F)C1` (centres unmarked) [drawing 1430] is 76 to 100%.
On the same count and under the same terms, the value for `O=C(c1cc2nc(-c3ccccn3)nc(O)c2s1)N1CCN(c2ccccc2)CC1` [drawing 1717] was 76 to 100%; that for `Oc1nc(-c2ccccn2)nc2c(-c3ccccc3OC3CCCCC3)csc12` [drawing 1742] was 76 to 100%; that for `N#Cc1ccc(COCC(=O)Nc2ccnc(-c3ccccn3)n2)cc1` [drawing 1689] was 76 to 100%.
Still for that read-out and setting: the value for `Nc1nc(O)c2scc(-c3ccccc3)c2n1` [drawing 1580] was 25 to 50%; that for `CC(C(=O)Nc1nc(-c2ccccn2)nc2sccc12)c1ccc(C#N)cc1` (centres unmarked) [drawing 1691] was 76 to 100%; that for `N#Cc1ccc(CCNC(=O)c2csc3nc(-c4ccccn4)nc(N4CCOCC4)c23)cc1` [drawing 1644] was 25 to 50%.
With `Cc1cncc(-c2csc3c(O)nc(-c4ccccn4)nc23)c1` [drawing 1789], the inhibition at 30 µM was 76 to 100%.
The molecule `Oc1ccc(C2(c3cccc(Cl)c3)CCCC2)cc1` [drawing 1525] returned an inhibition at 30 µM of 76 to 100%.
Turning to `Oc1nc(-c2ccccn2)nc2c(-c3ccccc3F)csc12` [drawing 1744], the inhibition at 30 µM was in the range of 76 to 100%.
Same read-out and setting: the value for `Cc1c(C(=O)N(C)C)sc2[nH]c(-c3ccccn3)nc(=O)c12` [drawing 1497] was 51 to 75%.
On the same count and under the same terms, the value for `COC(=O)C(C)CN(Cc1ccccc1)c1nc(C(F)(F)F)ccc1C#N` (centres unmarked) [drawing 1536] was 51 to 75%; that for `CC1CCN(C(=O)c2csc3c(O)nc(N)nc23)CC1` [drawing 1558] was 1 to 25%; that for `O=C(Cc1ccccc1)NCCC(=O)Nc1nnc(-c2ccccn2)[nH]1` [drawing 1413] was 1 to 25%.
In the case of `N#CCc1ccc(OCC(=O)Nc2nnc(-c3ccccn3)[nH]2)cc1` [drawing 1462], the inhibition at 30 µM is 1 to 25%.
On the same count and under the same terms, the value for `O=C(C1CCN(c2nc(-c3ccccn3)nc3scc(-c4ccccc4)c23)CC1)N1CCCCC1` [drawing 1622] was 76 to 100%; that for `O=C(c1csc2c(O)nc(-c3ccccn3)nc12)N1CCN(c2ccc(F)cc2F)CC1` [drawing 1653] was 76 to 100%; that for `COCCCn1ccc(Nc2cc(C)nc(-c3ccccn3)n2)n1` [drawing 1512] was 25 to 50%.
Same read-out and setting: the value for `Cc1nc(-c2ccccn2)nc(O)c1CCC(=O)NC1CCc2ccccc21` (centres unmarked) [drawing 1504] was 76 to 100%; that for `O=C(c1csc2c(O)nc(-c3ccccn3)nc12)N1CCNC(Cc2ccc(F)cc2)C1` (centres unmarked) [drawing 1707] was 51 to 75%.
On the same count and under the same terms, the figure for `O=C(Nc1nnc(-c2ccccn2)[nH]1)c1nc(N2CCOCC2)ncc1Cl` [drawing 1421] is 76 to 100%.
As to `O=C(Nc1nc(-c2ccccn2)cs1)C1CC(=O)N(c2ccc3c(c2)OCCO3)C1` (centres unmarked) [drawing 1482], the inhibition at 30 µM fell in the range of 76 to 100%.
Consider `Cc1nnc(C(Nc2nc(-c3ccccn3)nc3scc(-c4ccccc4)c23)c2ccccc2)n1C` (centres unmarked) [drawing 1596], for which the inhibition at 30 µM was in the range of 76 to 100%.
`COc1cc(N2CCN(C(=O)c3csc4c(O)nc(-c5ccccn5)nc34)CC2)cc(OC)c1OC` [drawing 1651] yielded an inhibition at 30 µM of 51 to 75%.
Same read-out and setting: the value for `COC(=O)c1csc2nc(-c3ccccn3)nc(N)c12` [drawing 1771] was 76 to 100%.
The same measure, in the same setting: the value for `CC(O)CNc1nc(-c2ccccn2)nc2scc(-c3ccccc3)c12` (centres unmarked) [drawing 1513] was 76 to 100%; that for `O=C(c1csc2c(O)nc(-c3ccccn3)nc12)N1CCN(c2ccncc2)CC1` [drawing 1570] was 76 to 100%; that for `Oc1nc(-c2ccccn2)nc2c(-c3ccc(OC4CCCC4)cc3)csc12` [drawing 1739] was 76 to 100%.
In turn, `CNS(=O)(=O)CCCNC(=O)c1csc2nc(-c3ccccn3)nc(N3CCOCC3)c12` [drawing 1684] displayed an inhibition at 30 µM of 76 to 100%.
Still for that read-out and setting: the value for `O=S(=O)(Oc1cc(C(F)(F)F)cc(C(F)(F)F)c1)N1CCc2ccccc2C1` [drawing 1532] was 25 to 50%; that for `OCCn1ccc2c1CCCC2Nc1nc(-c2ccccn2)nc2scc(-c3ccccc3)c12` (centres unmarked) was 76 to 100%.
For `CN(CC(=O)N1CCOCC1)c1nc(-c2ccccn2)nc2scc(-c3ccccc3)c12` [drawing 1609], the inhibition at 30 µM lay within 51 to 75%.
Same read-out and setting: the figure for `O=C(COn1ccnc1)Nc1nc(-c2ccccn2)nc2sccc12` is 76 to 100%.
On to `O=C(Nc1nc(-c2ccccn2)cs1)c1ccccn1` [drawing 1480], for which the inhibition at 30 µM fell in the range of 76 to 100%.
Turning to `COc1cccc(COCC(=O)Nc2nnc(-c3ccccn3)[nH]2)c1` [drawing 1446], the inhibition at 30 µM was in the range of 51 to 75%.
On the same count and under the same terms, the figure for `O=C(Cn1c(=O)cnc2ccccc21)Nc1nc(-c2ccccn2)cs1` [drawing 1476] is 76 to 100%; for `O=C(CCc1c[nH]c2ccccc12)Nc1nnc(-c2ccccn2)[nH]1` [drawing 1400] it is 51 to 75%.
Still for that read-out and setting: the figure for `CC1(N)CCN(C(=O)c2csc3c(O)nc(-c4ccccn4)nc23)CC1` [drawing 1573] is 1 to 25%.
Same read-out and setting: the value for `COCCOCCN(C)C(=O)c1csc2c(O)nc(-c3ccccn3)nc12` [drawing 1575] was 25 to 50%.
In turn, `O=C(NCCc1ccnc(O)n1)c1csc2nc(-c3ccccn3)nc(N3CCOCC3)c12` [drawing 1774] yielded an inhibition at 30 µM of 1 to 25%.
